# Data taken from patent US20220047507A1, “MELFLUFEN DOSAGE REGIMENS FOR CANCER” (ONCOPEPTIDES AB, priority 2015, published 2022).
# Like-named read-outs stand apart in the source and are kept apart here.
# Key:
# [1] = human, in vivo, iv
# [2] = test system: relapsed-refractory multiple myeloma (RRMM) patients; experiment: Safety in patients with RRMM, Example 2b, time point (bii); assay type: in vivo, human; conditions: of the 57 patients in the ongoing melflufen study
# [3] = test system: relapsed-refractory multiple myeloma (RRMM) patients; experiment: Safety in patients with RRMM, Example 2a; assay type: in vivo, human; conditions: 40 mg
# Description: (§1) Example 2: An open label single arm extension on the dose of 40 mg over 30 minutes of Example 1. Intravenous melflufen was administered over 30 minutes on Day 1 of a 21-day cycle or 28-day cycle (in combination with 40 mg dexamethasone (oral or intravenous) treatment on Days 1, 8 and 15) for at least 2 cycles, and up to the stated number of cycles. The cycle length was extended during the Example 2 Clinical Trial from 21 to 28 days per a protocol amendment to allow for a better recovery of neutrophils and thrombocytes before a new cycle is initiated.
# (§2) Example 2a results are from a data cut-off of time point (a). Example 2b results are from a data cut-off of time point (bi) for the efficacy data, which was approximately 12 months after time point (a); and from a data cut-off of time point (bii) for the safety data, which was approximately 10 months after time point (a).
# As mentioned above, by the data cut-off for Example 2a 38 patients had been dosed with 162 doses of melflufen hydrochloride 40 mg over 30 minutes. Median number of cycles was 3 (1-13) and median duration of treatment was 13 weeks (2-51 weeks). The dose intensity was 96% (77-100).
# [4] = test system: relapsed-refractory multiple myeloma (RRMM) patients; experiment: Safety in patients with RRMM, Example 2b, time point (bii); assay type: in vivo, human
# Description: as §1
# Dose reductions from 40 mg to 25 mg melflufen for patients in the trial was possible in connection with adverse effects of thrombocytopenia/neutropenia.
# as §2
# By the data cut-off point for safety data (time point (bii)) 40 patients has been dosed with 183 doses of melflufen hydrochloride 40 mg over 30 minutes. A total of 11 patients had dose reductions from 40 mg to 25 mg melflufen during the study. All dose reductions were in connection with AEs of thrombocytopenia/neutropenia. Seven (7) patients (64%) had dose reductions in connection to thrombocytopenia, 3 patients to neutropenia (27%) and 1 patient (9%) to both thrombocytopenia and neutropenia.
# MM cells = conditions: in vitro; cited from earlier work
# [5] = 40 mg melflufen (+dex) treated patients
# [6] = 40 mg treated patients, Example 2b
# [7] = 40 mg, Example 2b N = 40, listed as melflufen hydrochloride
# [8] = Cycle length 21 days, 30 patients, 87 cycles
# [9] = Cycle length 28 days, 10 patients, 24 cycles
# [10] = of the 11 patients with dose reductions
# [11] = of the 40 safety evaluable patients
compound,measurement,setting,value
"CCOC(=O)[C@H](Cc1ccc(F)cc1)NC(=O)[C@@H](N)Cc1ccc(N(CCCl)CCCl)cc1.Cl [melflufen, L-Melphalanyl-4-fluoro-L-phenylalanine ethyl ester]",time after end of infusion within which melflufen is no longer measurable,[1],≤ 15 min
same,tmax,[1]; 25 mg,15 min
same,tmax,[1]; 40 mg,25 min
same,fatal events while on treatment or within 30 days of last dose,[2],11%
same,Serious TEAE related to melflufen: Diarrhoea,[3]; Example 2a,(3) %
same,"Serious TEAE related to melflufen: Diarrhoea, number of patients",[3]; Example 2a,1
same,Serious TEAE related to melflufen: Escherichia coli sepsis,[3]; Example 2a,(3) %
same,"Serious TEAE related to melflufen: Escherichia coli sepsis, number of patients",[3]; Example 2a,1
same,Serious TEAE related to melflufen: Febrile Neutropenia,[3]; Example 2a,(5) %
same,"Serious TEAE related to melflufen: Febrile Neutropenia, number of patients",[3]; Example 2a,2
same,Serious TEAE related to melflufen: Neutropenia,[3]; Example 2a,(3) %
same,"Serious TEAE related to melflufen: Neutropenia, number of patients",[3]; Example 2a,1
same,Serious TEAE related to melflufen: Pneumonia,[3]; Example 2a,(8) %
same,"Serious TEAE related to melflufen: Pneumonia, number of patients",[3]; Example 2a,3
same,Serious TEAE related to melflufen: Pyrexia,[3]; Example 2a,(5) %
same,"Serious TEAE related to melflufen: Pyrexia, number of patients",[3]; Example 2a,2
same,"Anemia, treatment related ≥grade 3",[3]; Example 2a N = 38,(40) %
same,"Any treatment-related grade 3 and/or grade 4, grade 4",[3]; Example 2a N = 38,(50) %
same,"Any treatment-related grade 3 and/or grade 4, ≥grade 3",[3]; Example 2a N = 38,87%
same,"Asthenia, treatment related ≥grade 3",[3]; Example 2a N = 38,(5) %
same,"Blood and lymphatic system disorders, treatment related grade 4",[3]; Example 2a N = 38,(47) %
same,"Blood and lymphatic system disorders, treatment related ≥grade 3",[3]; Example 2a N = 38,(76) %
same,"Fatigue, treatment related ≥grade 3",[3]; Example 2a N = 38,(5) %
same,"Febrile neutropenia, treatment related ≥grade 3",[3]; Example 2a N = 38,(5) %
same,"General disorders and administration site conditions, treatment related ≥grade 3",[3]; Example 2a N = 38,(18) %
same,"Hyperglycemia, treatment related grade 4",[3]; Example 2a N = 38,(3) %
same,"Hyperglycemia, treatment related ≥grade 3",[3]; Example 2a N = 38,(8) %
same,"Infections and infestations, treatment related ≥grade 3",[3]; Example 2a N = 38,(8) %
same,"Investigations, treatment related ≥grade 3",[3]; Example 2a N = 38,(10) %
same,"Leukopenia, treatment related grade 4",[3]; Example 2a N = 38,(13) %
same,"Leukopenia, treatment related ≥grade 3",[3]; Example 2a N = 38,(34) %
same,"Metabolism and nutrition disorders, treatment related grade 4",[3]; Example 2a N = 38,(3) %
same,"Metabolism and nutrition disorders, treatment related ≥grade 3",[3]; Example 2a N = 38,(8) %
same,"Neutropenia, treatment related grade 4",[3]; Example 2a N = 38,(26) %
same,"Neutropenia, treatment related ≥grade 3",[3]; Example 2a N = 38,(53) %
same,"Neutrophil count decreased, treatment related ≥grade 3",[3]; Example 2a N = 38,(10) %
same,"Pneumonia, treatment related ≥grade 3",[3]; Example 2a N = 38,(8) %
same,"Pyrexia, treatment related ≥grade 3",[3]; Example 2a N = 38,(5) %
same,"Thrombocytopenia, treatment related grade 4",[3]; Example 2a N = 38,(34) %
same,"Thrombocytopenia, treatment related ≥grade 3",[3]; Example 2a N = 38,(68) %
same,"Any treatment-related grade 3 and/or grade 4, ≥grade 3","[3]; Example 2a N = 38, listed as melflufen hydrochloride",(87) %
same,patients with Serious TEAEs,"[3]; Example 2a, 38 patients",34%
same,patients with TEAEs leading to death,"[3]; Example 2a, 38 patients",8%
same,patients with TEAEs leading to dose reduction of melflufen,"[3]; Example 2a, 38 patients",18%
same,patients with grade 3 or 4 TEAEs,"[3]; Example 2a, 38 patients",90%
same,patients with treatment-related Serious TEAEs,"[3]; Example 2a, 38 patients",21%
same,Grade 3 and 4 febrile neutropenia regardless of relationship,[4]; [5],5%
same,Grade 3 and 4 lower respiratory tract infection regardless of relationship,[4]; [5],2%
same,"Grade 3 and 4 lower respiratory tract infection regardless of relationship, n patients",[4]; [5],1
same,"Grade 3 and 4 neutropenia regardless of relationship, n patients",[4]; [5],23
same,Grade 3 and 4 parainfluenza virus infection regardless of relationship,[4]; [5],2%
same,"Grade 3 and 4 parainfluenza virus infection regardless of relationship, n patients",[4]; [5],1
same,Grade 3 and 4 pneumonia regardless of relationship,[4]; [5],10%
same,Grade 3/4 hyperglycemia (reported as treatment-related to dexamethasone),[4]; [6],10%
same,"Grade 3/4 hyperglycemia (reported as treatment-related to dexamethasone), n patients",[4]; [6],4
same,Serious TEAE related to melflufen: Diarrhoea,"[4]; 40 mg, Example 2b",(5) %
same,"Serious TEAE related to melflufen: Diarrhoea, number of patients","[4]; 40 mg, Example 2b",2
same,Serious TEAE related to melflufen: Escherichia coli sepsis,"[4]; 40 mg, Example 2b",(2.5) %
same,"Serious TEAE related to melflufen: Escherichia coli sepsis, number of patients","[4]; 40 mg, Example 2b",1
same,Serious TEAE related to melflufen: Febrile Neutropenia,"[4]; 40 mg, Example 2b",(5) %
same,"Serious TEAE related to melflufen: Febrile Neutropenia, number of patients","[4]; 40 mg, Example 2b",2
same,Serious TEAE related to melflufen: Neutropenia,"[4]; 40 mg, Example 2b",(5) %
same,"Serious TEAE related to melflufen: Neutropenia, number of patients","[4]; 40 mg, Example 2b",2
same,Serious TEAE related to melflufen: Pneumonia,"[4]; 40 mg, Example 2b",(10) %
same,"Serious TEAE related to melflufen: Pneumonia, number of patients","[4]; 40 mg, Example 2b",4
same,Serious TEAE related to melflufen: Pyrexia,"[4]; 40 mg, Example 2b",(5) %
same,"Serious TEAE related to melflufen: Pyrexia, number of patients","[4]; 40 mg, Example 2b",2
same,"anemia, all grades, regardless of relationship","[4]; 40 mg, Example 2b",65%
same,"asthenia, all grades, regardless of relationship","[4]; 40 mg, Example 2b",35%
same,"diarrhoea, all grades, regardless of relationship","[4]; 40 mg, Example 2b",25%
same,"nausea, all grades, regardless of relationship","[4]; 40 mg, Example 2b",28%
same,"neutropenia, all grades, regardless of relationship","[4]; 40 mg, Example 2b",65%
same,"pyrexia, all grades, regardless of relationship","[4]; 40 mg, Example 2b",43%
same,"thrombocytopenia, all grades, regardless of relationship","[4]; 40 mg, Example 2b",73%
same,"Anemia, treatment related ≥grade 3","[4]; 40 mg, Example 2b N = 40",43%
same,"Any treatment-related grade 3 and/or grade 4, grade 4","[4]; 40 mg, Example 2b N = 40",(50) %
same,"Any treatment-related grade 3 and/or grade 4, ≥grade 3","[4]; 40 mg, Example 2b N = 40",85%
same,"Asthenia, treatment related ≥grade 3","[4]; 40 mg, Example 2b N = 40",(5) %
same,"Blood and lymphatic system disorders, treatment related grade 4","[4]; 40 mg, Example 2b N = 40",(50) %
same,"Blood and lymphatic system disorders, treatment related ≥grade 3","[4]; 40 mg, Example 2b N = 40",(82.5) %
same,"Fatigue, treatment related ≥grade 3","[4]; 40 mg, Example 2b N = 40",(5) %
same,"Febrile neutropenia, treatment related ≥grade 3","[4]; 40 mg, Example 2b N = 40",(5) %
same,"General disorders and administration site conditions, treatment related ≥grade 3","[4]; 40 mg, Example 2b N = 40",(17.5) %
same,"Hyperglycemia, treatment related grade 4","[4]; 40 mg, Example 2b N = 40",(3) %
same,"Hyperglycemia, treatment related ≥grade 3","[4]; 40 mg, Example 2b N = 40",(8) %
same,"Infections and infestations, treatment related ≥grade 3","[4]; 40 mg, Example 2b N = 40",(5) %
same,"Investigations, treatment related ≥grade 3","[4]; 40 mg, Example 2b N = 40",(12.5) %
same,"Metabolism and nutrition disorders, treatment related grade 4","[4]; 40 mg, Example 2b N = 40",(3) %
same,"Metabolism and nutrition disorders, treatment related ≥grade 3","[4]; 40 mg, Example 2b N = 40",(8) %
same,"Neutropenia, treatment related grade 4","[4]; 40 mg, Example 2b N = 40",(30) %
same,"Neutropenia, treatment related ≥grade 3","[4]; 40 mg, Example 2b N = 40",58%
same,"Neutrophil count decreased, treatment related ≥grade 3","[4]; 40 mg, Example 2b N = 40",(10) %
same,"Pneumonia, treatment related ≥grade 3","[4]; 40 mg, Example 2b N = 40",(5) %
same,"Pyrexia, treatment related ≥grade 3","[4]; 40 mg, Example 2b N = 40",(5) %
same,"Thrombocytopenia, treatment related grade 4","[4]; 40 mg, Example 2b N = 40",(40) %
same,"Thrombocytopenia, treatment related ≥grade 3","[4]; 40 mg, Example 2b N = 40",63%
same,"White blood cell count decreased, treatment related ≥grade 3","[4]; 40 mg, Example 2b N = 40",(5) %
same,"Anemia, treatment related ≥grade 3",[4]; [7],(43) %
same,"Any treatment-related grade 3 and/or grade 4, ≥grade 3",[4]; [7],(85) %
same,"Neutropenia, treatment related ≥grade 3",[4]; [7],(57.5) %
same,"Thrombocytopenia, treatment related ≥grade 3",[4]; [7],(62.5) %
same,patients with Serious TEAEs,"[4]; 40 mg, Example 2b, 40 patients",40%
same,patients with treatment-related Serious TEAEs,"[4]; 40 mg, Example 2b, 40 patients",30%
same,median number of cycles before discontinuation due to bone marrow suppression,[4]; 14 patients,3.5 cycles
same,Cycles with a dose interruption,[4]; [8],(37) % of total
same,Patients with a dose interruption,[4]; [8],(57) % of total
same,Patients with a dose reduction,[4]; [8],(37) % of total
same,Cycles with a dose interruption,[4]; [9],(13) % of total
same,Patients with a dose interruption,[4]; [9],(30) % of total
same,Patients with a dose reduction,[4]; [9],(20) % of total
same,incidence of Grade 3-4 pneumonia,[4]; Example 2b,14%
same,infectious adverse effects with fatal outcomes possibly related to the study treatments,[4]; Example 2b,8%
same,"infectious adverse effects with fatal outcomes possibly related to the study treatments, n patients",[4]; Example 2b,3
same,patients with TEAEs leading to dose reduction of melflufen from 40 mg to 25 mg,"[4]; Example 2b, 40 patients",32.5%
same,effect on renal function,"[4]; MM patients, clinical trials",does not appear to have any effect on renal function
same,"reports of syncope, seizures, ventricular arrhythmias, ventricular tachycardia, ventricular fibrillation, flutter, torsade de pointes, or sudden deaths",[4]; in the clinical trials,no reports
same,dose reductions in connection to both thrombocytopenia and neutropenia,[4]; [10],9%
same,"dose reductions in connection to both thrombocytopenia and neutropenia, n patients",[4]; [10],1
same,dose reductions in connection to neutropenia,[4]; [10],27%
same,"dose reductions in connection to neutropenia, n patients",[4]; [10],3
same,dose reductions in connection to thrombocytopenia,[4]; [10],64%
same,"dose reductions in connection to thrombocytopenia, n patients",[4]; [10],7
same,treatment discontinuations due to treatment-related bone marrow suppression,[4]; [11],35%
same,"treatment discontinuations due to treatment-related bone marrow suppression, n patients",[4]; [11],14
same,"fatal events while on treatment or within 30 days of last dose, n patients",[4]; of the 57 patients in the ongoing melflufen study,6
same,intracellular exposure (as AUC) of alkylating agents compared to an equimolar dosage of melphalan,MM cells,≥ 20 fold
